Measurements: patent US10220046B2, “Compositions and methods for disease treatment using nanoparticle delivered compounds” (THE REGENTS OF THE UNIVERSITY OF MICHIGAN, priority 2014, dated 2019)
Non-standard residues stand in square brackets, D forms with d. No end group written: not given here.

Assays:
[1] = sHDL nanoparticle formation and loading with additional anticancer agents; assay type: physicochemical; details: agent in place of WGA-TA
From the text: The composition as described in Example was made with various anticancer agents in place of WGA-TA.

SW13 and NCI-H295R cells = test: Cell viability assay (CellTiter-Glo) and combination index; assay type: cell-based, human
Description: Serial dilutions were made from the starting concentrations and viability of cells was then measured based on quantification of the ATP levels after treatment with CellTiter-Glo luminescent assay reagent as per the manufacturer's instruction (Promega, Madison, Wis.) with luminescence quantified using a BioTek Synergy Neo plate reader (BioTek, Winooski, Vt.). […] For all cell-based experiments, the experimental control group was defined, unless stated otherwise, as untreated cells or cells treated with single drug alone (when comparing to combination regimens).

LCAT = target: T1, LCAT (Homo sapiens, UniProt P04180); details: cited from earlier work
T1 sequence (P04180 25-440): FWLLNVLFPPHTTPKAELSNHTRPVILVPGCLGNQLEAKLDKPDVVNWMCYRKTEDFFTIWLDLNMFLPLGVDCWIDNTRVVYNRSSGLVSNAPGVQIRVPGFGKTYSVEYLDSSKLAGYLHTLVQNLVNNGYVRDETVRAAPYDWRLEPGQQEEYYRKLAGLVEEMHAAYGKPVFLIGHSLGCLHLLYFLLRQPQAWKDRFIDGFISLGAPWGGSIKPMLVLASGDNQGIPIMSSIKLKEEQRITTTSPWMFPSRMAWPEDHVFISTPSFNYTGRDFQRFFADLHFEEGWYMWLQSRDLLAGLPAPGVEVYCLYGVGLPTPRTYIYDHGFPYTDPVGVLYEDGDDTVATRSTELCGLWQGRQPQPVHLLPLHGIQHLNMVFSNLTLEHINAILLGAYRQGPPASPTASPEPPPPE

[2] = Metabolite analysis in mouse plasma by LC-MS/MS; assay type: in vivo, CD-1 white mice; details: IV 4 mg/kg WGA-TA in dextran formulation, 30 minutes after administration
Description: CD-1 white mice were given an IV dosage of 4 mg/kg WGA-TA in dextran formulation. Samples of blood was collected at different time points in heparin treated tubes and the plasma collected after centrifugation at 13,000 rpm for 10 min and was frozen at −80° C. for later analysis. For the evaluation of metabolites, 300 uL of ice-cold acetonitrile was added to 100 uL of the mouse plasma and then centrifuged at 4° C. in 15000 rpm for 10 minutes. The top supernatant was dried under a stream of nitrogen gas. The residue was finally reconstituted in a 100 uL solution of 20% acetonitrile (80% water). Blank plasma needed for the control was prepared from untreated CD-1 white mice blood as above. As a negative control, blank plasma spiked with WGA-TA before extraction was used. The LC-MS/MS analysis was conducted using a Shimadzu HPLC system coupled with an API 4500 mass spectrometer (Applied Biosystems, MDS Sciex Toronto, Canada), equipped with an API electrospray ionization (ESI) source. Enhanced MS, product ion-scan, and MRM scan were used as a survey scan to identify metabolites of WGA-TA. Information dependent acquisition (IDA) was used to collect fragmentation of metabolite candidates or single experiment of enhanced product ion scan was applied to acquire fragmentation of metabolites after running survey scan. […]

NCI-H295R cells [3] = test: Colony formation assay; assay type: cell-based, human; details: clonogenic assay, 24 h treatment, with 50 μg/ml sHDL
Description: (§1) NCI-H295R and SW13 cells were plated in 6-well plates and allowed to attach. […] The medium was changed and surviving cells allowed to grow colonies of 50 cells or more for two weeks, then washed, fixed, and stained with coomassie blue and counted. Total colony numbers were normalized to untreated controls.

SW13 cells [4] = test: Colony formation assay; assay type: cell-based, human; details: clonogenic assay, 24 h treatment, with 50 μg/ml sHDL
Description: as §1

NCI-H295R cells [5] = test: Apoptosis by flow cytometry (annexin V-FITC/propidium iodide); assay type: cell-based, human; details: combination with sHDL vs. drug alone, 24 h
Description: (§2) Following treatment, cells were washed, re-suspended in annexin binding buffer and stained using annexin V-FITC/Propidium iodide as previously described (Subramanian et al., World J. Surg., 2014, 38(6): 1343-52). Induction of apoptosis was measured using the CyAn ADP Analyzer (Beckman Coulter, Inc., Indianapolis, Ind.).

SW13 cells [6] = test: as above; assay type: cell-based, human; details: combined with sHDL vs. drug alone, 24 h
Description: as §2

NCI-H295R cells [7] = test: Mitochondrial membrane potential (TMRE); assay type: cell-based, human; details: combination with sHDL vs. drug alone, 24 h
Description: (§3) SW13 and NCI-H295R were seeded in a 96 well black wall plate. Once attached, they were treated with the drugs as described above. 24 h post drug treatment, 500 nM tetramethylrhodamine, ethyl ester (TMRE) was added and the cells were incubated for 20 minutes at 37° C. and the fluorescent signal was measured after washing using a microplate reader (excitation=549, emission=575). 100 nM FCCP (carbonyl cyanide 4-(trifluoromethoxy)phenylhydrazone) was added to cells 10 minutes before the addition of TMRE as a negative control.

SW13 cells [8] = test: Mitochondrial membrane potential (TMRE); assay type: cell-based, human; details: combination with sHDL vs. drug alone, 24 h
Description: as §3

[9] = test system: cortisol production of NCI-H295R cells; test: Cortisol immunoassay of culture supernatant; assay type: cell-based, human; details: 24 h
Description: The cortisol immunoassay (Alpco, Salem, N.H.) was used to quantitate cortisol levels in the culture supernatant of steroid producing NCI-H295R cells after treatment with drug combinations (same as in clonogic assay) for 24 h per the manufacturer instructions. Briefly, culture supernatant after treatment was added to the antibody coated-plates containing assay buffer (45 minutes at 25° C.). After washing, tetra methyl benzidine (TMB) substrate was incubated at RT and absorbance measured using a Synergy Neo reader (BioTek, Winooski, Vt.).

[10] = test system: genes involved in steroidogenesis in NCI-H295R cells; test: Real time RT-PCR of genes involved in steroidogenesis; assay type: cell-based, human; details: combination with sHDL compared to monotherapy, 24 h; decreased for P and M, increased for E
Description: RNA from the NCI-H295R cells after drug treatment for 24 h was prepared using Qiagen RNA isolation kit (Qiagen Sciences, Valencia, Calif.). Approximately 500 ng of RNA was reverse transcribed using superscript RT kit from Life Technologies (Grand Island, N.Y.). qPCR was performed in a step-one RT PCR machine using the gene specific primer sets (Table 3) as published (11). Relative gene expression levels were calculated after normalization with internal control.

NCI-H295R MCAs = test: Three dimensional multicellular aggregate (MCA) treatment; assay type: cell-based, human; details: in combination with 50 μg/ml sHDL, 24 h
From the text: (§4) To evaluate the translational potential of the combination therapy, three-dimensional multicellular aggregates were developed to mimic the in vivo tumor model as described by Jain et al. (Jain et al., Endocrine-related cancer. 2013 June; 20(3):361-70, herein incorporated by reference in its entirety). […] Untreated, sHDL alone treated cells served as controls. The MCAs were photographed before and after treatment and the MCAs were quantified by Image J software (NIH) as described by Jain et al.

SW13 MCAs = test: as above; assay type: cell-based, human; details: in combination with 50 μg/ml sHDL, 24 h
From the text: as §4

[11] = test system: adrenocortical carcinoma (ACC); details: advanced ACC patients; cited from earlier work

CC[C@@]1(O)C(=O)OCc2c1cc1n(c2=O)Cc2cc3cc(O)ccc3nc2-1 [10-hydroxy camptothecin]
nanoparticle formation and loading in sHDL [1]: Successful nanoparticle formation and loading

COc1cccc2c1C(=O)c1c(O)c3c(c(O)c1C2=O)C[C@@](O)(C(=O)CO)C[C@@H]3O[C@H]1C[C@H](N)[C@H](O)[C@H](C)O1 [doxorubicin]
combination index (CI) (SW13 and NCI-H295R cells; combined with sHDL nanoparticles (25 and 50 μg/ml), Chou-Talalay, 72 h): > 1

O=NN(CCCl)C(=O)NC1CCCCC1 [CCNU, lomustine]
nanoparticle formation and loading in sHDL [1]: Successful nanoparticle formation and loading

Ac-PVLDEFREKLNEELEALKQKLK-NH2 [consensus 22-mer]
LCAT activation as compared with native ApoA-I (LCAT): 10%

CC(=O)OCC1=C(C)C[C@H]([C@@H](C)C2CC[C@H]3[C@@H]4C[C@H]5O[C@]56[C@@H](OC(C)=O)C=CC(=O)[C@]6(COC(C)=O)[C@H]4CC[C@]23C)OC1=O (stereo partly shown) [WGA-TA, 4, 19, 27-triacetyl withalongolide A]
metabolic identification in plasma [2]: three deacetylation products

PVLELFENLLERLLDALQKKLK (listed as Homo sapiens) [SEQ ID NO:2, ApoA-I agonist peptide]
LCAT activation as compared with native ApoA-I (LCAT): 86%

COc1cc([C@@H]2c3cc4c(cc3[C@@H](O[C@@H]3O[C@@H]5CO[C@@H](C)O[C@H]5[C@H](O)[C@H]3O)[C@H]3COC(=O)[C@H]23)OCO4)cc(OC)c1O [etoposide]
higher reduction in viability, combination compared to single drug alone (NCI-H295R cells [3]): 44.6%
higher reduction in viability, combination compared to single drug alone (SW13 cells [4]): 39.52%
increase in the percentage of apoptotic cells (early and late) (NCI-H295R cells [5]): 36.46%
increase of necrotic cell death (SW13 cells [6]): 21.33%
reduction in mitochondrial potential ΔΨ (NCI-H295R cells [7]): 9.2%
reduction in mitochondrial potential ΔΨ (SW13 cells [8]): 31.54%
decrease of cortisol production levels ([9]; drug alone vs. controls): 82.1%
decrease of cortisol production levels ([9]; in combination with sHDL): not significantly different
HSD3B2 level [10]: 2.1 fold change
reduction in MCAs (NCI-H295R MCAs): approximately 50%
reduction in MCAs (SW13 MCAs): ~25%

N.N.[Cl][Pt][Cl] [cisplatin]
increase in the percentage of apoptotic cells (early and late) (NCI-H295R cells [5]): 6.16%
increase of necrotic cell death (SW13 cells [6]): 14.71%
reduction in mitochondrial potential ΔΨ (NCI-H295R cells [7]): 13.09%
reduction in mitochondrial potential ΔΨ (SW13 cells [8]): 6.5%
decrease of cortisol production levels ([9]; drug alone vs. controls): 8.39%
decrease of cortisol production levels ([9]; in combination with sHDL): 82%
HSD3B2 level [10]: 0.1 fold change
reduction in MCAs (NCI-H295R MCAs): Approximately 20%
reduction in MCAs (SW13 MCAs): approximately 50%

CC(=O)O[C@@]12CO[C@@H]1C[C@H](O)[C@@]1(C)C(=O)[C@H](O)C3=C(C)[C@@H](OC(=O)[C@H](O)[C@@H](NC(=O)OC(C)(C)C)c4ccccc4)C[C@@](O)([C@@H](OC(=O)c4ccccc4)[C@H]21)C3(C)C [docetaxel]
nanoparticle formation and loading in sHDL [1]: Successful nanoparticle formation and loading

CC(=O)O[C@H]1C(=O)[C@@]2(C)[C@H]([C@H](OC(=O)c3ccccc3)[C@]3(O)C[C@H](OC(=O)[C@H](O)[C@@H](NC(=O)c4ccccc4)c4ccccc4)C(C)=C1C3(C)C)[C@]1(OC(C)=O)CO[C@@H]1C[C@@H]2O [paclitaxel]
nanoparticle formation and loading in sHDL [1]: Successful nanoparticle formation and loading

pVLELFENLLERLLDALQKKLK ([dP]VLELFENLLERLLDALQKKLK) [SEQ ID NO:3, ApoA-I agonist peptide with D-Pro at X1]
LCAT activation as compared with native ApoA-I (LCAT): 111%

Clc1ccc(C(c2ccccc2Cl)C(Cl)Cl)cc1 (stereo not shown) [mitotane]
IC50 value (SW13 and NCI-H295R cells; SW13 cells compared to NCI-H295R cells): higher IC50 value
higher reduction in viability, combination compared to single drug alone (NCI-H295R cells [3]): 39.1%
higher reduction in viability, combination compared to single drug alone (SW13 cells [4]): 22.3%
increase in the percentage of apoptotic cells (early and late) (NCI-H295R cells [5]): 36.01%
increase of apoptotic cell death (SW13 cells [6]): 11.9%
reduction in mitochondrial potential ΔΨ (NCI-H295R cells [7]): 14.49%
reduction in mitochondrial potential ΔΨ (SW13 cells [8]): 19.8%
decrease of cortisol production levels ([9]; drug alone vs. controls): 84.7%
decrease of cortisol production levels ([9]; in combination with sHDL): not significantly different
HSD3B2 level [10]: 0.2 fold change
reduction in MCAs (NCI-H295R MCAs): ~30%
reduction in MCAs (SW13 MCAs): approximately 50%
improvement in survival rate [11]: 14-50 months
initial response rates [11]: 20-30%
